This assay deals with T1, human Nav1.7 (hNav1.7) (Homo sapiens, UniProt Q15858).
T1 construct: expressed in transfected cells
Nature of the assay: hNav1.7 whole-cell patch-clamp electrophysiology (automated PatchXpress 7000A or manual) in stably expressing 293 cells. Format: cell-based. To be noted: average IC50, human Nav1.7. The method, then:
Compounds were tested on human Nav1.7 (hNav1.7) expressed stably in 293 cells, which have no endogenous sodium channels. Two forms of whole-cell patch-clamp assays were used. In both, peak current through Nav1.7 was evoked by a depolarizing voltage pulse, and currents were monitored as a function of time in response to exposure to several different concentrations of drug. Automated electrophysiology uses the PatchXpress 7000A system. Up to sixteen cells at a time were voltage-clamped in parallel, and the steady-state voltage dependence of inactivation was determined experimentally for each cell. For each cell, fractional inactivation was set at 20%, and peak current through Nav1.7 as a function of time was measured in response to increasing concentrations of test compound. Manual electrophysiology refers to conventional whole-cell patch-clamping (Hamill et al., 1981). After formation of the whole-cell clamp, cells were lifted off the bottom of the dish with the patch pipette and positioned directly in front of an array of glass microperfusion tubes each with internal diameter about 250 microns, with individual compound concentrations flowing from each tube. Current as a function of time in response to increasing drug concentrations was measured with Nav1.7 fully in the resting state (holding voltage set to −140 mV) and on the same cells with the holding voltage set to produce about 20% inactivation. Compounds were not applied for a prespecified time, but for as long as required to achieve a stable level of block. For both forms of electrophysiology, offline analysis was used to correct for rundown of channel current and to determine percent inhibition as a function of drug concentration. IC50 were determined by fitting to the Hill equation.
(In patch-clamp work, channel activity is measured electrically.)

Each structure is given as a SMILES string.

T1 sequence (Q15858 whole entry): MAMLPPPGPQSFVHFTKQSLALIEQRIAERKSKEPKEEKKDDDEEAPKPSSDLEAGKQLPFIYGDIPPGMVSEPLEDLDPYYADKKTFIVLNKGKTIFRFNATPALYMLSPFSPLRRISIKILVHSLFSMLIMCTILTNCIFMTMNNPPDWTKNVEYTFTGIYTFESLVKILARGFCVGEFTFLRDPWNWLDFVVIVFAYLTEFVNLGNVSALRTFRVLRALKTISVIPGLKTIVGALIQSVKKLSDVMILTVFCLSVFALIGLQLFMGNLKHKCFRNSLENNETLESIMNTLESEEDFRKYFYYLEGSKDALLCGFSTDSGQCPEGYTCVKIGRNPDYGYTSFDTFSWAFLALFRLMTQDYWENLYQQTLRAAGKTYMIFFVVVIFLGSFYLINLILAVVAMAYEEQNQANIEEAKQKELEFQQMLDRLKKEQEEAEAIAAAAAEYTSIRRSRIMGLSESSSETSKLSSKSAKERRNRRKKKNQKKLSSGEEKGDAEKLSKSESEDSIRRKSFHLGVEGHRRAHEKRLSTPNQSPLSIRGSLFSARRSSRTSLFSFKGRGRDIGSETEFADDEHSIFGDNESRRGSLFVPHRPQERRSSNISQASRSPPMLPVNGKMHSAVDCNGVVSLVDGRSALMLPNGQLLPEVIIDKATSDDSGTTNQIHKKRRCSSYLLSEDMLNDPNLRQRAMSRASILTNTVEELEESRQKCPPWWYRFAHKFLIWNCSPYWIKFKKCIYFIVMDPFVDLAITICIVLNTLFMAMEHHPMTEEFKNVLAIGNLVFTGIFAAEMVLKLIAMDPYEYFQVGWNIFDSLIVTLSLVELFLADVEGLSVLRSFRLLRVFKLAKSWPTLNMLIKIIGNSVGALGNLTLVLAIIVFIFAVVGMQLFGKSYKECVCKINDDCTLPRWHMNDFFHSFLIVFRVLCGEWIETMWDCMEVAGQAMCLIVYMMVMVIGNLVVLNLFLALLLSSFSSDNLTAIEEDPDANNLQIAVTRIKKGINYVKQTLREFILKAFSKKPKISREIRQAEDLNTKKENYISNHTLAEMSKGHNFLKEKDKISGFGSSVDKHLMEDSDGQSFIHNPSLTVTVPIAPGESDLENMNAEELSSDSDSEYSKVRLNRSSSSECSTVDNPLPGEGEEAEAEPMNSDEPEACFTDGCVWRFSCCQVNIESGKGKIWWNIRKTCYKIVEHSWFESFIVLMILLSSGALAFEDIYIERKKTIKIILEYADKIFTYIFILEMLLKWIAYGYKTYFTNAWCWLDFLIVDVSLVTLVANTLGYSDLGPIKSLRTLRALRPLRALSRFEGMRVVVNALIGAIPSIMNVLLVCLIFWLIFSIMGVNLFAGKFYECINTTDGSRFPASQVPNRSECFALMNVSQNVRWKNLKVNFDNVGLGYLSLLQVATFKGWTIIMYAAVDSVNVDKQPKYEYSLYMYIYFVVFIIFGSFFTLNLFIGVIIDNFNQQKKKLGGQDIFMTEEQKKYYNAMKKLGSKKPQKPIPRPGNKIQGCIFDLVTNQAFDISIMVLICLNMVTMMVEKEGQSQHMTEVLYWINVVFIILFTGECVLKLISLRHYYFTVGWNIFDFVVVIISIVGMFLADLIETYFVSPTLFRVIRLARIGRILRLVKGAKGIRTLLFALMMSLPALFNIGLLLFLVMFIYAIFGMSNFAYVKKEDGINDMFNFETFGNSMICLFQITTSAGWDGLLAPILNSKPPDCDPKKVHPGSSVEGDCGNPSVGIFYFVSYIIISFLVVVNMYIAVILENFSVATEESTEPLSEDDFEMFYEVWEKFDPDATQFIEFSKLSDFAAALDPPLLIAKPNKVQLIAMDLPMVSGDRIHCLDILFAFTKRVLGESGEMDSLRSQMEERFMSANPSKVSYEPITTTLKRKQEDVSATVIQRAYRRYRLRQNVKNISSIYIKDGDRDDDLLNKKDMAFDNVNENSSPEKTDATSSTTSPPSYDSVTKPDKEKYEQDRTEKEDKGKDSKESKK

`CNC(=O)c1cccc(Nc2ncnc(NCCCOc3ccc(OC(F)(F)F)cc3)n2)c1` [Example 13] registered an IC50 of 0.27 µM. In other words, the sub-micromolar range.
`CNC(=O)c1cc(Nc2ncnc(N3CC(Oc4ccc(Cl)cc4F)C3)n2)ccc1F` [Example 14] yielded an IC50 of 0.28 µM.
Regarding `CNC(=O)c1cccc(Nc2ncnc(N3CC(Oc4ccc(F)c(Cl)c4)C3)n2)c1` [Example 15], the IC50 turned out to be 0.28 µM.
As to `CNC(=O)c1cccc(Nc2ncnc(N3CC(Oc4ccc(F)cc4C)C3)n2)c1` [Example 16], inhibition was half-maximal at 0.29 µM (IC50).
The compound `CCc1cccc(OC2CN(c3ncnc(Nc4cccc(C(=O)NC)c4)n3)C2)c1` [Example 17] gave an IC50 of 0.3 µM.
With `CNC(=O)c1cccc(Nc2ncnc(N3CC(Oc4cc(Cl)ccc4Cl)C3)n2)c1` [Example 18], the IC50 was determined as 0.31 µM.
Next, `CNC(=O)c1cccc(Nc2nccc(N3CC(Oc4ccc(Cl)c(C)c4)C3)n2)c1` [Example 19]: 0.31 µM.
`CNC(=O)c1cccc(Nc2ncnc(N3CC(Oc4ccc(Cl)cc4C)C3)n2)c1` [Example 20] returned a concentration for half-maximal inhibition (IC50) of 0.32 µM.
`CNC(=O)c1cccc(Nc2ncnc(N3CC(Oc4ccc(Cl)cc4F)C3)n2)c1` [Example 21] gave a half-maximal inhibitory concentration (IC50) of 0.33 µM.
Compound `CNC(=O)c1cccc(Nc2ncnc(N3CC(Oc4ccc5c(c4)CCC5)C3)n2)c1` [Example 22] registered a half-maximal inhibitory concentration (IC50) of 0.35 µM.
As for `CNC(=O)c1cccc(Nc2ncnc(N3CCN(c4cccc(OC(F)(F)F)c4)CC3)n2)c1` [Example 23], the half-maximal inhibitory concentration (IC50) was determined as 0.35 µM.
Next, `CNC(=O)c1cccc(Nc2ncnc(N3CCC(c4nc(-c5ccccc5)cs4)CC3)n2)c1` [Example 24]: 0.38 µM; `CNC(=O)c1cccc(Nc2ncnc(N3CC(Oc4cccc(Cl)c4)C3)n2)c1` [Example 25]: 0.38 µM; `CNC(=O)c1cccc(Nc2ncnc(N3CCC(c4csc(-c5ccccc5)n4)CC3)n2)c1` [Example 26]: 0.39 µM.
In turn, `CNC(=O)c1cc(Nc2ncnc(N3CCC(c4nc(-c5ccccc5)cs4)CC3)n2)ccc1Cl` [Example 27] had a half-inhibitory concentration (IC50) of 0.4 µM.
Next, `COCCNC(=O)c1cccc(Nc2ncnc(N3CC(Oc4ccc(Cl)cc4)C3)n2)c1` [Example 28]: 0.4 µM; `CNC(=O)c1cccc(Nc2ncnc(N3CC(Oc4ccccc4Cl)C3)n2)c1` [Example 29]: 0.42 µM; `CNC(=O)c1cccc(Nc2nccc(N3CC(Oc4ccc(Cl)cc4)C3)n2)c1` [Example 30]: 0.43 µM.
Next, `CNC(=O)c1cccc(Nc2nccc(N3CC(Oc4ccc(OC)cc4)C3)n2)c1` [Example 31]: 0.43 µM; `CNC(=O)c1cccc(Nc2ncnc(N3CC(Oc4ccc(C)cc4Cl)C3)n2)c1` [Example 32]: 0.44 µM; `CNC(=O)c1cccc(Nc2ncnc(N3CC(Oc4ccccc4)C3)n2)c1` [Example 33]: 0.45 µM.
With `CNC(=O)c1cccc(Nc2ncnc(N3CCN(c4ccc(C)cc4)CC3)n2)c1` [Example 34], the IC50 amounted to 0.47 µM.
Next, `CNC(=O)c1cccc(Nc2ncnc(N3CC(Oc4ccc(C(F)(F)F)cc4)C3)n2)c1` [Example 35]: 0.47 µM; `CNC(=O)c1cccc(Nc2ncnc(N3CCC(C(=O)c4ccc(Cl)cc4)CC3)n2)c1` [Example 36]: 0.49 µM; `CNC(=O)c1cc(F)cc(Nc2ncnc(N3CC(Oc4ccc(Cl)cc4)C3)n2)c1` [Example 37]: 0.49 µM.
To `COCCNC(=O)c1cccc(Nc2ncnc(N3CC(Oc4ccc(F)cc4)C3)n2)c1` [Example 38] belongs 0.5 µM.
As for `CNC(=O)c1cccc(Nc2ncnc(N3CC(Oc4ccc(Cl)c(Cl)c4)C3)n2)c1` [Example 39], 0.5 µM corresponded to half-maximal inhibition (IC50).
On to `CNC(=O)c1cccc(Nc2ncnc(N3CC(COc4ccc(Cl)cc4)C3)n2)c1` [Example 40], for which 0.5 µM corresponded to half-maximal inhibition (IC50).
Compound `CNC(=O)c1cccc(Nc2ncnc(N3CCc4cc(OCC(F)(F)F)ccc4C3)n2)c1` [Example 41] had an IC50 of 0.52 µM. This IC50 and that of the compound before are within 1.5-fold of each other.
As for `CNC(=O)c1cccc(Nc2ncnc(N3CC(Oc4ccc(C(C)C)cc4)C3)n2)c1` [Example 42], the IC50 is 0.57 µM. The IC50 values of the last two compounds are within 1.5-fold of each other.
Next, `CNC(=O)c1cccc(Nc2ncnc(N3CCN(c4cccc(C(F)(F)F)c4)CC3)n2)c1` [Example 43]: 0.6 µM; `CNC(=O)c1cccc(Nc2ncnc(N3CCN(c4cccc(OC)c4)CC3)n2)c1` [Example 44]: 0.61 µM; `CNC(=O)c1cccc(Nc2ncnc(N3CCC(Oc4ccccc4)CC3)n2)c1` [Example 45]: 0.63 µM.
The compound `CNC(=O)c1cccc(Nc2ncnc(N3CC=C(c4csc(-c5ccccc5)n4)CC3)n2)c1` [Example 46] returned a half-inhibitory concentration (IC50) of 0.63 µM.
Consider `COCCNC(=O)c1cccc(Nc2ncnc(N3CC(COc4ccc(Cl)cc4)C3)n2)c1` [Example 47], for which half-maximal inhibition (IC50) was put at 0.64 µM.
To `CNC(=O)c1cccc(Nc2ncnc(N3CCC(Oc4cccc(F)c4)CC3)n2)c1` [Example 48] belongs 0.65 µM; to `CNC(=O)c1cccc(Nc2ncnc(N3CC(Oc4cccc(C)c4)C3)n2)c1` [Example 49], 0.65 µM; to `CNC(=O)c1cc(Nc2ncnc(N3CC(Oc4ccc(Cl)cc4)C3)n2)ccc1N(C)C` [Example 50], 0.65 µM.
`CNC(=O)c1cccc(Nc2ncnc(N3CC(Oc4ccc(Cl)cc4Cl)C3)n2)c1` [Example 51] gave an IC50 of 0.65 µM.
Consider `CNC(=O)c1cccc(Nc2ncnc(N3CC=C(c4nc(-c5ccccc5)cs4)CC3)n2)c1` [Example 52], for which the half-inhibitory concentration (IC50) was 0.66 µM.
With `CNC(=O)c1cccc(Nc2ncnc(N3CCN(c4ccc(C)c(C)c4)CC3)n2)c1` [Example 53], the half-inhibitory concentration (IC50) is 0.69 µM. The IC50 values of the last two compounds are within 1.5-fold of each other.
`CNC(=O)c1cccc(Nc2ncnc(N3CC(Oc4ccc(F)cc4Cl)C3)n2)c1` [Example 54]: the IC50 turned out to be 0.72 µM.
Turning to `CNC(=O)c1cccc(Nc2nccc(N3CC(Oc4ccc(Cl)c(F)c4)C3)n2)c1` [Example 55], half-maximal inhibition (IC50) required 0.74 µM.
Regarding `CNC(=O)c1cccc(Nc2cccc(N3CC(Oc4ccc(F)cc4)C3)n2)c1` [Example 56], 0.75 µM corresponded to half-maximal inhibition (IC50).
Take `CNC(=O)c1cc(Nc2ncnc(N3CC(Oc4ccc(F)cc4)C3)n2)ccc1F` [Example 57]: the 50% inhibitory concentration (IC50) was determined as 0.76 µM.
Next, `CNC(=O)c1cccc(Nc2ncnc(N3CCC(Oc4ccc(OC(F)(F)F)cc4)CC3)n2)c1` [Example 58]: 0.76 µM.
For `CNC(=O)c1cccc(Nc2nccc(N3CC(Oc4ccc(Cl)c(Cl)c4)C3)n2)c1` [Example 59], the IC50 was 0.78 µM.
The compound `CNC(=O)c1cccc(Nc2ncnc(N3CCN(c4cccc(F)c4)CC3)n2)c1` [Example 60] came in with an IC50 of 0.79 µM.
Next, `CNC(=O)c1cccc(Nc2ncnc(N3CC(Oc4ccc(F)cc4)C3)n2)c1` [Example 61]: 0.81 µM; `CNC(=O)c1cccc(Nc2ncnc(N3CC(Oc4cccc(C(F)(F)F)c4)C3)n2)c1` [Example 62]: 0.82 µM.
Take `CNC(=O)c1cccc(Nc2ncnc(N3CC(Oc4c(Cl)cccc4Cl)C3)n2)c1` [Example 63]: the concentration for half-maximal inhibition (IC50) was found to be 0.82 µM. That is a sub-micromolar value.
`CNC(=O)c1cc(Nc2ncnc(NCCCOc3ccc(OC(F)(F)F)cc3)n2)ccc1F` [Example 64] showed an IC50 of 0.83 µM.
As for `CNC(=O)c1cccc(Nc2ncnc(N3CCC(c4ccccc4)CC3)n2)c1` [Example 65], half-maximal inhibition (IC50) required 0.84 µM. The IC50 values of the last two compounds are within 1.5-fold of each other.
As to `CNC(=O)c1cccc(Nc2ncnc(N3CC(Oc4cc(C)ccc4Cl)C3)n2)c1` [Example 66], the IC50 was determined as 0.84 µM.
To `CNC(=O)c1cccc(Nc2ncnc(N3CC(COc4ccc(OC(F)(F)F)cc4)C3)n2)c1` [Example 67] belongs 0.85 µM.
Next, `CNC(=O)c1cccc(Nc2ncnc(N3CCC(Oc4ccc(OC(F)(F)F)c(F)c4)CC3)n2)c1` [Example 68]: 0.86 µM; `CNC(=O)c1cccc(Nc2ncnc(N3CCN(c4cccc(Cl)c4)CC3)n2)c1` [Example 69]: 0.87 µM.
`CNC(=O)c1cc(Nc2ncnc(N3CC(COc4ccc(Cl)cc4)C3)n2)ccc1F` [Example 70] returned a 50% inhibitory concentration (IC50) of 0.89 µM. The IC50 values of the last two compounds are within 1.5-fold of each other.
To `CNC(=O)c1cccc(Nc2ccnc(N3CC(Oc4ccc(F)cc4)C3)n2)c1` [Example 71] belongs 0.9 µM; to `CNC(=O)c1cccc(Nc2ncnc(N3CCc4c(C#N)cccc4C3)n2)c1` [Example 72], 0.9 µM.
`CNC(=O)c1cccc(Nc2ncnc(N3CC(COc4ccc(Cl)cc4C)C3)n2)c1` [Example 73] registered a half-maximal inhibitory concentration (IC50) of 0.9 µM.
To `CNC(=O)c1cccc(Nc2ncnc(N3CCN(c4ccc(C(F)(F)F)cc4)CC3)n2)c1` [Example 74] belongs 0.96 µM.
`CNC(=O)c1cc(Nc2ncnc(NCCCOc3ccc(OC(F)(F)F)cc3)n2)ccc1Cl` [Example 75] yielded an IC50 of 0.96 µM.
Consider `CNC(=O)c1cccc(Nc2ncnc(N3CCN(c4cccc(C)n4)CC3)n2)c1` [Example 76], for which half-maximal inhibition (IC50) required 0.97 µM.
Regarding `CNC(=O)c1cccc(Nc2ncnc(N3CCc4cc(OCCC(F)(F)F)ccc4C3)n2)c1` [Example 77], 0.98 µM corresponded to half-maximal inhibition (IC50).
For `C#Cc1cccc(OC2CN(c3ncnc(Nc4cccc(C(=O)NC)c4)n3)C2)c1` [Example 78], the half-inhibitory concentration (IC50) came out at 0.99 µM.
With `CNC(=O)c1cc(Nc2ncnc(N3CC(Oc4ccc(Cl)cc4F)C3)n2)ccc1Cl` [Example 79], the IC50 came to 1 µM.
`CNC(=O)c1cccc(Nc2ncnc(N3CC(Oc4cccc(OC)c4)C3)n2)c1` [Example 80] registered an IC50 of 1.03 µM.

The IC50 is the concentration that gives 50% inhibition. A higher IC50 goes with weaker potency.

For the origin of these results see patent US9334269B2, “Carboxamides as inhibitors of voltage-gated sodium channels” (AMGEN INC., priority 2010, dated 2016).
